Laboratory results taken from paper PMC5218480 (PLoS ONE, 2017).

Test system: MV-4-11 cells
Test: Gene expression microarray analysis (Affymetrix PrimeView) and GSEA
Format: cell-based, human
Parameters: RFU PODN (11730768_x_at) / Fold change /veh PODN (11730768_x_at) / RFU LINC00158 (11744669_a_at) / Fold change /veh LINC00158 (11744669_a_at) / RFU DUSP10 (11751237_a_at) / Fold change /veh DUSP10 (11751237_a_at) / RFU ID3 (11757404_x_at) / Fold change /veh ID3 (11757404_x_at) / RFU PLEKHG5 (11737974_s_at) / Fold change /veh PLEKHG5 (11737974_s_at) / RFU LRRC4B (11730491_at) / Fold change /veh LRRC4B (11730491_at) / RFU GIMAP4 (11747438_a_at) / Fold change /veh GIMAP4 (11747438_a_at) / RFU KRT8 (11758183_x_at) / Fold change /veh KRT8 (11758183_x_at) / RFU CNN1 (11734310_a_at) / Fold change /veh CNN1 (11734310_a_at) / RFU VPS37D (11726825_at) / Fold change /veh VPS37D (11726825_at) / RFU C10orf10 (11716522_x_at) / Fold change /veh C10orf10 (11716522_x_at) / RFU KIR2DL2 /// KIR2DL4 /// KIR2DL5A /// KIR2DL5B /// KIR2DS1 /// KIR2DS2 /// KIR2DS3 /// KIR2DS4 /// KIR3DL3 /// KIR3DL3 /// KIR3DS1 (11738374_at) / Fold change /veh KIR2DL2 /// KIR2DL4 /// KIR2DL5A /// KIR2DL5B /// KIR2DS1 /// KIR2DS2 /// KIR2DS3 /// KIR2DS4 /// KIR3DL3 /// KIR3DL3 /// KIR3DS1 (11738374_at) / RFU C1QL1 (11718748_at) / Fold change /veh C1QL1 (11718748_at) / RFU TMPRSS4 (11747572_a_at) / Fold change /veh TMPRSS4 (11747572_a_at) / RFU HAMP (11756126_x_at) / Fold change /veh HAMP (11756126_x_at) / RFU RNFT2 (11725882_a_at) / Fold change /veh RNFT2 (11725882_a_at) / RFU NR4A2 (11747474_a_at) / Fold change /veh NR4A2 (11747474_a_at) / RFU ABCC12 (11746883_a_at) / Fold change /veh ABCC12 (11746883_a_at) / RFU TMEM136 (11760407_x_at) / Fold change /veh TMEM136 (11760407_x_at) / RFU CLDN22 /// WWC2 (11732394_at) / Fold change /veh CLDN22 /// WWC2 (11732394_at) / RFU HLA-DPB1 (11760878_x_at) / Fold change /veh HLA-DPB1 (11760878_x_at) / RFU SPINT1 (11716480_a_at) / Fold change /veh SPINT1 (11716480_a_at) / RFU GAP43 (11754022_s_at) / Fold change /veh GAP43 (11754022_s_at) / RFU A4GNT (11735810_at) / Fold change /veh A4GNT (11735810_at) / RFU PRB3 (11715151_x_at) / Fold change /veh PRB3 (11715151_x_at) / RFU TUBB4B (11761932_at) / Fold change /veh TUBB4B (11761932_at) / RFU CAPN14 (11732068_a_at) / Fold change /veh CAPN14 (11732068_a_at) / RFU TMCC2 (11721928_a_at) / Fold change /veh TMCC2 (11721928_a_at) / RFU IRGQ (11745062_a_at) / Fold change /veh IRGQ (11745062_a_at) / RFU FAM174B (11720279_a_at) / Fold change /veh FAM174B (11720279_a_at) / RFU TMPRSS4 (11748680_a_at) / Fold change /veh TMPRSS4 (11748680_a_at) / RFU FAM212B (11763350_a_at) / Fold change /veh FAM212B (11763350_a_at) / RFU PLEKHG5 (11743358_a_at) / Fold change /veh PLEKHG5 (11743358_a_at) / RFU ZSCAN30 (11745921_a_at) / Fold change /veh ZSCAN30 (11745921_a_at) / RFU CMKLR1 (11741424_a_at) / Fold change /veh CMKLR1 (11741424_a_at) / RFU LOC101060620 /// MAPK8IP1 (11723275_at) / Fold change /veh LOC101060620 /// MAPK8IP1 (11723275_at) / RFU SPTSSB (11747773_x_at) / Fold change /veh SPTSSB (11747773_x_at) / RFU PRSS12 (11739890_at) / Fold change /veh PRSS12 (11739890_at) / RFU BIN1 (11741810_x_at) / Fold change /veh BIN1 (11741810_x_at) / RFU WNT11 (11732464_a_at) / Fold change /veh WNT11 (11732464_a_at) / RFU C10orf10 (11716521_a_at) / Fold change /veh C10orf10 (11716521_a_at) / RFU C5orf56 (11738089_at) / Fold change /veh C5orf56 (11738089_at) / RFU CYB561 (11721691_x_at) / Fold change /veh CYB561 (11721691_x_at) / RFU ANKRD19P (11752326_a_at) / Fold change /veh ANKRD19P (11752326_a_at) / RFU OR2T12 /// OR2T33 /// OR2T8 (11738714_s_at) / Fold change /veh OR2T12 /// OR2T33 /// OR2T8 (11738714_s_at) / RFU VCAN (11748164_a_at) / Fold change /veh VCAN (11748164_a_at) / RFU JSRP1 (11732532_at) / Fold change /veh JSRP1 (11732532_at) / RFU KRTAP10-11 (11738290_x_at) / Fold change /veh KRTAP10-11 (11738290_x_at) / RFU MYO3A (11730013_a_at) / Fold change /veh MYO3A (11730013_a_at) / RFU EBF3 (11725865_a_at) / Fold change /veh EBF3 (11725865_a_at) / RFU CAMK2N1 (11719241_x_at) / Fold change /veh CAMK2N1 (11719241_x_at) / RFU C5orf56 (11738088_a_at) / Fold change /veh C5orf56 (11738088_a_at) / RFU OLFML3 (11715873_a_at) / Fold change /veh OLFML3 (11715873_a_at) / RFU LOC100653217 /// NTM (11731650_a_at) / Fold change /veh LOC100653217 /// NTM (11731650_a_at) / RFU MAPK11 (11762145_a_at) / Fold change /veh MAPK11 (11762145_a_at) / RFU FIZ1 (11724087_x_at) / Fold change /veh FIZ1 (11724087_x_at) / RFU OASL (11726364_x_at) / Fold change /veh OASL (11726364_x_at) / RFU SOX15 (11748057_x_at) / Fold change /veh SOX15 (11748057_x_at) / RFU CD79A (11719716_a_at) / Fold change /veh CD79A (11719716_a_at) / RFU HIST1H1D (11736915_at) / Fold change /veh HIST1H1D (11736915_at) / RFU CASKIN2 (11723855_a_at) / Fold change /veh CASKIN2 (11723855_a_at) / RFU LOC730098 (11760151_x_at) / Fold change /veh LOC730098 (11760151_x_at) / RFU OR4N2 (11742367_at) / Fold change /veh OR4N2 (11742367_at) / RFU PRRT2 (11749266_a_at) / Fold change /veh PRRT2 (11749266_a_at) / RFU SNX32 (11753110_a_at) / Fold change /veh SNX32 (11753110_a_at) / RFU CDHR5 (11726645_a_at) / Fold change /veh CDHR5 (11726645_a_at) / RFU RCAN1 (11760418_a_at) / Fold change /veh RCAN1 (11760418_a_at) / RFU FAM167A (11723789_a_at) / Fold change /veh FAM167A (11723789_a_at) / RFU FAM26E (11764081_at) / Fold change /veh FAM26E (11764081_at) / RFU ISYNA1 (11749810_s_at) / Fold change /veh ISYNA1 (11749810_s_at) / RFU ACY1 (11761880_at) / Fold change /veh ACY1 (11761880_at) / RFU 11764098_at / Fold change /veh 11764098_at / RFU SAMD14 (11745864_x_at) / Fold change /veh SAMD14 (11745864_x_at) / RFU NPB (11741838_a_at) / Fold change /veh NPB (11741838_a_at) / RFU TMPRSS6 (11731388_a_at) / Fold change /veh TMPRSS6 (11731388_a_at) / RFU KRTAP10-2 (11738614_at) / Fold change /veh KRTAP10-2 (11738614_at) / RFU ARHGAP8 /// PRR5-ARHGAP8 (11727945_x_at) / Fold change /veh ARHGAP8 /// PRR5-ARHGAP8 (11727945_x_at) / RFU KRTAP5-7 /// NADSYN1 (11734609_at) / Fold change /veh KRTAP5-7 /// NADSYN1 (11734609_at) / RFU RASL12 (11751679_a_at) / Fold change /veh RASL12 (11751679_a_at) / RFU CDKN2B (11736163_a_at) / Fold change /veh CDKN2B (11736163_a_at) / RFU PRF1 (11729649_at) / Fold change /veh PRF1 (11729649_at) / RFU, ZNF638 /// ZNF638-IT1 / Fold change vs veh, ZNF638 /// ZNF638-IT1 / RFU, PANK3 / Fold change vs veh, PANK3 / RFU, SH3YL1 / Fold change vs veh, SH3YL1 / RFU, ZEB2 / Fold change vs veh, ZEB2 / RFU, NRIP1 / Fold change vs veh, NRIP1 / RFU, PTTG1IP / Fold change vs veh, PTTG1IP / RFU, CAPN2 / Fold change vs veh, CAPN2 / RFU, MED14 / Fold change vs veh, MED14 / RFU, SNORA58 / Fold change vs veh, SNORA58 / RFU, C1orf63 / Fold change vs veh, C1orf63 / RFU, LRRFIP1 / Fold change vs veh, LRRFIP1 / RFU, NDUFAF7 / Fold change vs veh, NDUFAF7 / RFU, SLC12A2 / Fold change vs veh, SLC12A2 / RFU, IBTK / Fold change vs veh, IBTK / RFU, ESF1 / Fold change vs veh, ESF1 / Fold change vs veh, TMEM50B / RFU, TAOK1 / Fold change vs veh, TAOK1 / RFU, ACBD3 / Fold change vs veh, ACBD3 / RFU, TMA16 / Fold change vs veh, TMA16 / RFU, RWDD3 / Fold change vs veh, RWDD3 / RFU, BCAT1 / Fold change vs veh, BCAT1 / RFU, EDEM3 / Fold change vs veh, EDEM3 / RFU, TMEM33 / Fold change vs veh, TMEM33 / RFU, WDR75 / Fold change vs veh, WDR75 / RFU, AHCTF1 / Fold change vs veh, AHCTF1 / RFU, TFRC / Fold change vs veh, TFRC / RFU, ZDHHC17 / Fold change vs veh, ZDHHC17 / RFU, NOM1 / Fold change vs veh, NOM1 / RFU, ARL8B / Fold change vs veh, ARL8B / RFU, ZBTB11 / Fold change vs veh, ZBTB11 / RFU, TAMM41 / Fold change vs veh, TAMM41 / RFU, KIAA1704 /// LOC100996395 / Fold change vs veh, KIAA1704 /// LOC100996395 / RFU, ING1 / Fold change vs veh, ING1 / RFU, TRMT61B / Fold change vs veh, TRMT61B / RFU, FUBP3 / Fold change vs veh, FUBP3 / RFU, TP53 / Fold change vs veh, TP53 / RFU, TNKS2 / Fold change vs veh, TNKS2 / RFU, ZFP14 / Fold change vs veh, ZFP14 / RFU, ACTR2 / Fold change vs veh, ACTR2 / RFU, PPP3R1 / Fold change vs veh, PPP3R1 / RFU, PIK3R1 / Fold change vs veh, PIK3R1 / RFU, HNRNPA1 / Fold change vs veh, HNRNPA1 / RFU, RNF170 / Fold change vs veh, RNF170 / RFU, ZNF28 / Fold change vs veh, ZNF28 / RFU, RNGTT / Fold change vs veh, RNGTT / RFU, OGT / Fold change vs veh, OGT / RFU, BRD1 / Fold change vs veh, BRD1 / RFU, MARS / Fold change vs veh, MARS / RFU, ZNF655 / Fold change vs veh, ZNF655 / RFU, FAHD1 / Fold change vs veh, FAHD1 / RFU, BDP1 / Fold change vs veh, BDP1 / RFU, LRRCC1 / Fold change vs veh, LRRCC1 / RFU, ARID1A / Fold change vs veh, ARID1A / RFU, ZNF146 / Fold change vs veh, ZNF146 / RFU, ZNF330 / Fold change vs veh, ZNF330 / RFU, GPN3 / Fold change vs veh, GPN3 / RFU, C9orf123 / Fold change vs veh, C9orf123 / RFU, N4BP2L2 / Fold change vs veh, N4BP2L2 / RFU, ARFIP1 / Fold change vs veh, ARFIP1 / RFU, FAM179B / Fold change vs veh, FAM179B / RFU, BCL10 / Fold change vs veh, BCL10 / RFU, UHRF1BP1L / Fold change vs veh, UHRF1BP1L / RFU, BET1 / Fold change vs veh, BET1 / RFU, CNOT2 / Fold change vs veh, CNOT2 / RFU, ZNF268 / Fold change vs veh, ZNF268 / Fold change vs veh, ZNF507 / RFU, DGCR2 / Fold change vs veh, DGCR2 / RFU, WDSUB1 / Fold change vs veh, WDSUB1 / Fold change vs veh, HSP90B1 /// MIR3652 / RFU, ADSS / Fold change vs veh, ADSS / RFU, GK / Fold change vs veh, GK / RFU, ZNF148 / Fold change vs veh, ZNF148 / RFU, TAF9 / Fold change vs veh, TAF9 / RFU, SLC1A5 / Fold change vs veh, SLC1A5 / RFU, SLMO2 / Fold change vs veh, SLMO2 / RFU, ABCC4 / Fold change vs veh, ABCC4 / RFU, LOC101060439 /// RAP1B / Fold change vs veh, LOC101060439 /// RAP1B / RFU, RFX7 / Fold change vs veh, RFX7 / RFU, GTPBP10 / Fold change vs veh, GTPBP10 / RFU, CNEP1R1 / Fold change vs veh, CNEP1R1 / RFU, BIVM-ERCC5 /// ERCC5 / Fold change vs veh, BIVM-ERCC5 /// ERCC5 / RFU, ILF3 / Fold change vs veh, ILF3 / RFU 11762660_at / Fold change /veh 11762660_at / RFU VCAN (11757783_s_at) / Fold change /veh VCAN (11757783_s_at) / RFU DDX43 (11728927_at) / Fold change /veh DDX43 (11728927_at) / RFU KRT8 (11758188_x_at) / Fold change /veh KRT8 (11758188_x_at) / RFU NKD1 (11759106_at) / Fold change /veh NKD1 (11759106_at) / RFU SRD5A1 (11742802_a_at) / Fold change /veh SRD5A1 (11742802_a_at) / RFU TPSAB1 /// TPSB2 (11721975_s_at) / Fold change /veh TPSAB1 /// TPSB2 (11721975_s_at) / RFU GSTM3 (11746129_a_at) / Fold change /veh GSTM3 (11746129_a_at) / RFU IL23R (11737362_x_at) / Fold change /veh IL23R (11737362_x_at) / RFU TMEM51 (11727254_a_at) / Fold change /veh TMEM51 (11727254_a_at) / RFU PIWIL2 (11732686_x_at) / Fold change /veh PIWIL2 (11732686_x_at) / RFU ORM1 (11744905_x_at) / Fold change /veh ORM1 (11744905_x_at) / RFU CCDC152 (11743942_at) / Fold change /veh CCDC152 (11743942_at) / RFU ECM1 (11717891_a_at) / Fold change /veh ECM1 (11717891_a_at) / RFU IL23R (11748794_a_at) / Fold change /veh IL23R (11748794_a_at) / RFU TNFAIP8L3 (11732012_x_at) / Fold change /veh TNFAIP8L3 (11732012_x_at) / RFU MBOAT4 (11741988_at) / Fold change /veh MBOAT4 (11741988_at) / RFU 11764193_at / Fold change /veh 11764193_at / RFU TMEM53 (11763286_at) / Fold change /veh TMEM53 (11763286_at) / RFU MAGEB2 (11727129_at) / Fold change /veh MAGEB2 (11727129_at) / RFU TMEM200A (11744735_a_at) / Fold change /veh TMEM200A (11744735_a_at) / RFU CCDC152 (11751479_a_at) / Fold change /veh CCDC152 (11751479_a_at) / RFU FAM211A (11726209_a_at) / Fold change /veh FAM211A (11726209_a_at) / RFU RGS16 (11746705_a_at) / Fold change /veh RGS16 (11746705_a_at) / RFU VCAN (11755009_s_at) / Fold change /veh VCAN (11755009_s_at) / RFU RHOB (11743442_s_at) / Fold change /veh RHOB (11743442_s_at) / RFU RGS16 (11720943_a_at) / Fold change /veh RGS16 (11720943_a_at) / RFU RGS16 (11720944_at) / Fold change /veh RGS16 (11720944_at) / RFU, VPS4B / Fold change vs veh, VPS4B / RFU, CREB1 / Fold change vs veh, CREB1 / RFU, DNAJC13 / Fold change vs veh, DNAJC13 / RFU, GNAQ / Fold change vs veh, GNAQ / RFU, CDK5R1 / Fold change vs veh, CDK5R1 / RFU, ZRANB3 / Fold change vs veh, ZRANB3 / RFU, CUL4A / Fold change vs veh, CUL4A / RFU, CCNY / Fold change vs veh, CCNY / RFU, UFL1 / Fold change vs veh, UFL1 / RFU, COG3 / Fold change vs veh, COG3 / RFU, DIAPH2 / Fold change vs veh, DIAPH2 / RFU, SKA2 / Fold change vs veh, SKA2 / RFU, AFF3 / Fold change vs veh, AFF3 / RFU, LMF1 / Fold change vs veh, LMF1 / RFU, IPO11 / Fold change vs veh, IPO11 / RFU, DFFB / Fold change vs veh, DFFB / RFU, FOXP1 / Fold change vs veh, FOXP1 / RFU, CARD8 / Fold change vs veh, CARD8 / RFU, STRN3 / Fold change vs veh, STRN3 / RFU, ADK / Fold change vs veh, ADK / RFU, RASSF2 / Fold change vs veh, RASSF2 / RFU, WIPF1 / Fold change vs veh, WIPF1 / RFU, LARP1B / Fold change vs veh, LARP1B / RFU, RASA1 / Fold change vs veh, RASA1 / RFU, RB1 / Fold change vs veh, RB1 / RFU, PPFIA1 / Fold change vs veh, PPFIA1 / RFU, MAT2A / Fold change vs veh, MAT2A / RFU, CCT5 / Fold change vs veh, CCT5 / RFU, WDR92 / Fold change vs veh, WDR92 / RFU, CUX1 / Fold change vs veh, CUX1 / RFU, TTC7A / Fold change vs veh, TTC7A / RFU, TMEM135 / Fold change vs veh, TMEM135 / RFU, DEPTOR / Fold change vs veh, DEPTOR / RFU, CPM / Fold change vs veh, CPM / RFU, DNAJB6 / Fold change vs veh, DNAJB6 / RFU, CACNA2D3 / Fold change vs veh, CACNA2D3 / RFU, DTX4 / Fold change vs veh, DTX4 / RFU, TFCP2 / Fold change vs veh, TFCP2 / RFU, GMCL1 /// GMCL1P1 / Fold change vs veh, GMCL1 /// GMCL1P1 / RFU, AEBP2 / Fold change vs veh, AEBP2 / RFU, SNHG1 /// SNORD22 /// SNORD25 /// SNORD26 /// SNORD27 /// SNORD28 /// SNORD29 /// SNORD31 / Fold change vs veh, SNHG1 /// SNORD22 /// SNORD25 /// SNORD26 /// SNORD27 /// SNORD28 /// SNORD29 /// SNORD31 / Fold change (Aza/veh), C12orf56 (ProbeSet 11735607_a_at) / Fold change (ACY-1035/veh), C12orf56 (ProbeSet 11735607_a_at) / Fold change (Aza/veh), FGFR1OP (ProbeSet 11751329_s_at) / Fold change (ACY-1035/veh), FGFR1OP (ProbeSet 11751329_s_at) / Fold change (Aza/veh), VPS36 (ProbeSet 11739960_a_at) / Fold change (ACY-1035/veh), VPS36 (ProbeSet 11739960_a_at) / RFU SYPL1 (11715823_x_at) / Fold change /veh SYPL1 (11715823_x_at) / RFU IGFBP7 (11715501_s_at) / Fold change /veh IGFBP7 (11715501_s_at) / RFU REEP3 (11722064_at) / Fold change /veh REEP3 (11722064_at) / RFU IGLL1 (11728026_x_at) / Fold change /veh IGLL1 (11728026_x_at): dose or concentration left out as unconfirmed
Conditions: MV-4-11 cells, 48 hours

Nc1ncn([C@@H]2O[C@H](CO)[C@@H](O)[C@H]2O)c(=O)n1 [azacitidine]
Fold change /veh ARHGAP8 /// PRR5-ARHGAP8 (11727945_x_at): 0.99
